# Measured values reported in article PMC9947975, “Design, Synthesis, and Biological Evaluation Studies of Novel Naphthalene-Chalcone Hybrids As Antimicrobial, Anticandidal, Anticancer, and VEGFR-2 Inhibitors” (ACS Omega, 2023).
# Values joined by “and” are separate entries in the source; they are usually repeats but may differ in a detail not shown here. Identical values can stand only once.
# Tests used:
# [1] = test system: S. aureus (ATCC 29213); assay: Antibacterial activity, MIC50 by resazurin fluorometric measurement; format: cell-based, Staphylococcus aureus
# Procedure: (§1) Obtained compounds (2a–2j) were evaluated for antibacterial activity against Escherichia coli (E. coli) (ATCC 25922), Pseudomonas aeruginosa (P. aeruginosa) (ATCC 27853), […] (E. faecalis) (ATCC 2942), Bacillus subtilis (B. subtilis) (ATCC 6051), Staphylococcus aureus (S. aureus) (ATCC 29213), and Staphylococcus epidermidis (S. epidermidis) (ATCC 12228). MIC50 values were determined via fluorometric measurements, using resazurin solution.[13] Azithromycin was used as a standard drug in the antibacterial activity test.
# (§2) The antimicrobial activity of obtained derivatives (2a–2j) was screened on six bacterial and three fungal strains according to the standard procedure of CLSI[20] as described in the previous study.[21] The antibacterial activities of the obtained compounds were screened against B. subtilis (ATCC 6051), E. coli (ATCC 25922), E. faecalis (ATCC 2942), P. aeruginosa (ATCC 27853), S. aureus (ATCC 29213), and S. epidermidis (ATCC 12228). The obtained compounds were evaluated for anticandidal activity against C. albicans (ATCC 24433), C. krusei (ATCC 6258), and C. parapsilopsis (ATCC 22019). For antibacterial activity, azithromycin was utilized as a reference drug, whereas voriconazole and fluconazole were used for anticandidal activity.
# [2] = test system: C. albicans (ATCC 24433); assay: Anticandidal activity, MIC50 by resazurin fluorometric measurement; format: cell-based, Candida albicans
# Procedure: (§3) Obtained compounds (2a–2j) were evaluated for anticandidal activity against Candida albicans (C. albicans) (ATCC 24433), Candida krusei (C. krusei) (ATCC 6258), and Candida parapsilopsis (C. parapsilopsis) (ATCC 22019). MIC50 values were determined via fluorometric measurements, using resazurin solution.[13] Voriconazole and fluconazole were used as a standard drug in the anticandidal activity test. […] In general, it is seen that the 2-methoxyethyl substituent increases the anticandidal activity.
# as §2
# [3] = test system: A549 cell line; assay: Analysis of mitochondrial membrane potential (MMP) by flow cytometry, JC-1 dye; format: cell-based; details: A549, IC50 concentration, 24-h incubation
# Procedure: After a 24-h incubation period, mitochondrial membrane potential was measured with JC-1 dye.
# The BD Mitoscreen Mitochondrial Membrane Potential Detection JC-1 Kit (available from ref ([23])) was used for the MMP test. First, A549 cells were seeded in 25 mL flasks and incubated for 24 h in a 5% CO2 incubator. […] At the end of this period, cells were collected and centrifuged in accordance with the kit contents. After the upper part was removed, JC-1 dye was added and incubated at 37 °C for 10–15 min. At the end of the period, it was washed 2 times with washing solution and reading was done with the appropriate procedure using the CytoFLEX Flow Cytometer (Beckman Coulter Life Sciences, USA) and CytExpert for CytoFLEX Acquisition and Analysis Software Version 2.2.0.97.
# [4] = test system: A549 cell line; assay: MTT cytotoxicity test; format: cell-based; details: for IC50: MTT, 24-h treatment, means of quartet assays ± SEM
# Procedure: (§4) The MTT test was performed using 3 different cell lines for calculated IC50 values of obtained compounds. […] For this purpose, the cytotoxic effects of the compounds against the healthy mouse fibroblast cell (NIH3T3) were investigated.
# (§5) The 3-(4,5-dimethylthiazol-2-yl)-2,5-diphenyltetrazolium salt reduction method, or MTT assay, is used to measure the metabolic activity of live cells. […] Doxorubicin is used as a therapeutic drug. MTT assays were carried out as previously explained.[19]
# [5] = test system: HepG2 cell line; assay: MTT cytotoxicity test; format: cell-based; details: Homo sapiens, 24-h treatment, means of quartet assays ± SEM
# Procedure: as §4, §5
# [6] = test system: S. epidermidis (ATCC 12228); assay: Antibacterial activity, MIC50 by resazurin fluorometric measurement; format: cell-based, Staphylococcus epidermidis
# Procedure: as §1, §2
# [7] = test system: E. faecalis (ATCC 2942); assay: as above; format: cell-based, Enterococcus faecalis
# Procedure: as §1, §2
# [8] = test system: healthy mouse fibroblast cell (NIH3T3); assay: MTT cytotoxicity test on healthy cells; format: cell-based; details: 24-h treatment, means of quartet assays ± SEM
# Procedure: as §4, §5
# [9] = test system: carcinogenic cell lines; assay: Flow cytometric analysis of apoptosis and necrosis (Apoptosis, Necrosis and Healthy Cell Quantitation Kit Plus); format: cell-based; details: IC50 concentration, 24-h incubation
# Text: The flow cytometer was used to calculate the percentages of apoptotic and necrotic cells in four different quadrants, which are denoted by the letters “UL, UR, LL, LR” (Upper Left, Upper Right, Lower Left, Lower Right). The four distinct quadrants in the diagram represent the following areas, respectively: Apoptotic or early apoptotic cells, LR: CF488A+/(EthD-III)-; necrotic or late apoptotic cells, […]: CF488A+/(EthD-III)+; intact cells, LL: CF488A/(EthD-III); and dead or necrotic cells, UR: CF488A+/(EthD-III)+. The IC50 concentration of each substance was used in administration.
# Death pathway of the carcinogenic cell lines was detected by Apoptosis, Necrosis and Healthy Cell Quantitation Kit Plus (Cat: 30066, Biotium, Hayward, CA, USA)[22] as reported in the manufacturer’s instruction. The IC50 values for doxorubicin and compound 2j were applied. Cells were collected by centrifugation at 1200 rpm for 5 min following a 24-h incubation period. It was washed 2 times with PBS, centrifuged and turned into pellets. One ×10^6 cells/mL of annexin were suspended in V-FITC binding buffer. Ethidium iodide ([…]), Hoestch 1 mL, and annexin V-FITC ([…]) were added to stain cells and using the CytoFLEX Flow Cytometer (Beckman Coulter Life Sciences, USA) and CytExpert for CytoFLEX Acquisition and Analysis Software Version 2.2.0.97 instrument. Fluorescence measurements were made using a flow cytometer in accordance with the instrument procedure.
# [10] = test system: B. subtilis (ATCC 6051); assay: Antibacterial activity, MIC50 by resazurin fluorometric measurement; format: cell-based; details: Bacillus subtilis, ATCC6051; means of triplicate assays
# Procedure: as §1, §2
# [11] = test system: P. aeruginosa (ATCC 27853); assay: as above; format: cell-based; details: Pseudomonas aeruginosa, ATCC27853; means of triplicate assays
# Procedure: as §1, §2
# [12] = test system: E. coli (ATCC 25922); assay: as above; format: cell-based; details: Escherichia coli, ATCC25922; means of triplicate assays
# Procedure: as §1, §2
# [13] = test system: C. parapsilopsis (ATCC 22019); assay: Anticandidal activity, MIC50 by resazurin fluorometric measurement; format: cell-based, Candida parapsilopsis; details: Candida, ATCC22019; means of triplicate assays
# Procedure: as §3, §2
# [14] = biological target: T1, VEGFR-2 enzyme (Homo sapiens, UniProt P35968); assay: VEGFR-2 inhibition assay (VEGFR-2 Kinase Assay Kit); format: biochemical; details: serial 11 dilutions, 1000 μM–0.01 μM
# T1 construct: purchased
# Procedure: The VEGFR-2 Kinase Assay Kit (Available from ref ([15])) was used for the VEGFR-2 inhibition. The experiment was performed in vitro according to the kit procedure. Serial 11 dilutions of compound 2j were prepared at concentrations of 1000 μM–0.01 μM. The IC50 value for compound 2j was calculated using the kit procedure.
# The VEGFR-2 Kinase Assay Kit (available from ref ([15])) was used for the VEGFR-2 inhibition. The experiment was performed in vitro according to the kit procedure.
# [15] = test system: C. krusei (ATCC 6258); assay: Anticandidal activity, MIC50 by resazurin fluorometric measurement; format: cell-based, Candida krusei
# Procedure: as §3, §2
# [16] = test system: carcinogenic cell lines; assay: Flow cytometric analysis of apoptosis and necrosis (Apoptosis, Necrosis and Healthy Cell Quantitation Kit Plus); format: cell-based; details: IC50 concentration, 24-h incubation; remark: listed apart in the source
# T1 sequence (P35968 20-1356): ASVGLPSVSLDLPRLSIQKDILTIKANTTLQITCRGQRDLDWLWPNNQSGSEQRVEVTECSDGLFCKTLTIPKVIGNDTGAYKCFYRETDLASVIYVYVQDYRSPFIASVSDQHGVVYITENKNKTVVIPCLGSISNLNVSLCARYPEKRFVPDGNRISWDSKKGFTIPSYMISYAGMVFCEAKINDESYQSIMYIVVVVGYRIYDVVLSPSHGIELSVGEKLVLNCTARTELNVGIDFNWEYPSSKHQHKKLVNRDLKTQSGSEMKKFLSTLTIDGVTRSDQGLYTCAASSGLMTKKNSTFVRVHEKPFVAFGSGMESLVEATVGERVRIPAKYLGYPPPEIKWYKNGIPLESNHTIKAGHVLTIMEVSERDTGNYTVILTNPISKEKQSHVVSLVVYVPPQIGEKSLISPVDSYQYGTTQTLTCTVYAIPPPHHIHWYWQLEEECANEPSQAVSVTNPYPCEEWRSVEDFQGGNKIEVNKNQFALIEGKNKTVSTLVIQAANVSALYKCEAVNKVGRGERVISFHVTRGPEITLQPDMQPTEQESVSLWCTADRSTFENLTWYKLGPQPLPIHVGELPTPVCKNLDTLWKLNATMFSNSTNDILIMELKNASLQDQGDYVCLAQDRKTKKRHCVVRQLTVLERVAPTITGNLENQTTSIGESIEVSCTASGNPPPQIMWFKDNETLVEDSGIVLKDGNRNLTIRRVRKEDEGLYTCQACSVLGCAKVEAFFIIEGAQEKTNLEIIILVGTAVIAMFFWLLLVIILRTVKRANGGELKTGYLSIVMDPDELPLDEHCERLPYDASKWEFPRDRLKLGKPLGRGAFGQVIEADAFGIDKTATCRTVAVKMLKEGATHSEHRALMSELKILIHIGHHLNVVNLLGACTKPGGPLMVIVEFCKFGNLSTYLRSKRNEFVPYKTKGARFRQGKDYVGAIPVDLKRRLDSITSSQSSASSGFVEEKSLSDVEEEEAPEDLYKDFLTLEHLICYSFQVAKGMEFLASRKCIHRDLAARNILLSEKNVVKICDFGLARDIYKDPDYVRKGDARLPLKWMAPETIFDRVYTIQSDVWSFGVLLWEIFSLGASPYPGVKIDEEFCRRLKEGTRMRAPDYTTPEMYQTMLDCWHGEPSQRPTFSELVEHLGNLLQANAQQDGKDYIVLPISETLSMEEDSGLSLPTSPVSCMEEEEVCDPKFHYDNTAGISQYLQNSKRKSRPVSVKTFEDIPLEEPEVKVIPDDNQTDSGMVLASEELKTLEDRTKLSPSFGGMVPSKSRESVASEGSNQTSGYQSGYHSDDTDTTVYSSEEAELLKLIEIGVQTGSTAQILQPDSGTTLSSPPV
smiles,measurement,setting,value
"COCCN1CCN(c2ccc(C(=O)C=Cc3ccc4ccccc4c3)cc2)CC1 [2j, 1-(4-(4-(2-Methoxyethyl)piperazin-1-yl)phenyl)-3-(naphthalen-2-yl)prop-2-en-1-one]",MIC50,"[1]; Staphylococcus aureus, ATCC29213, means of triplicate assays",31.2 µg/mL
same,MIC50 S. aureus,[1]; means of triplicate assays,31.3 µg/mL
same,MIC50,"[2]; Candida albicans, ATCC24433, means of triplicate assays",15.6 µg/mL
same,MIC50 C. albicans,[2]; means of triplicate assays,15.6 µg/mL
same,mitochondrial membrane potential (P3),[3],58.870%
same,IC50,"[4]; Homo sapiens, A549, 24 h",< 10 µM
same,IC50,[4],7.8 µM and 7.83 µM
same,selectivity index (IC50 value vs healthy cell/IC50 value vs cancer cell),[4]; NIH3T3 vs A549 cell line,1.990
same,IC50,[5],38.9 ± 1.34 µM
same,MIC50,"[6]; Staphylococcus epidermidis, ATCC12228, means of triplicate assays, read-out: MIC50 S. epidermis",31.2 µg/mL
same,MIC50 S. epidermis,[6]; means of triplicate assays,31.3 µg/mL
same,MIC50,"[7]; Enterococcus faecalis, ATCC2942, means of triplicate assays",15.6 µg/mL
same,MIC50 E. faecalis,[7]; means of triplicate assays,15.7 µg/mL
same,IC50,[8],15.6 ± 0.75 µM
same,early apoptosis (Q1-LR),[9],3.97%
same,intact cells (Q1-LL),[9],67.71%
same,necrosis (Q1-UL),[9],18.06% and 18.1%
same,rate of apoptosis (early + late apoptosis),[9],14.230% and 14.2%
same,MIC50,[10],> 100 µg/mL
same,MIC50,[11],62.5 µg/mL
same,MIC50,[12],> 100 µg/mL
same,MIC50,[13],> 100 µg/mL
same,IC50,[14],0.098 ± 0.005 µM
same,MIC50,"[15]; Pichia kudriavzevii, ATCC6258, means of triplicate assays",15.6 µg/mL
same,MIC50 C. krusei,[15]; means of triplicate assays,15.6 µg/mL
same,late apoptosis (Q1-UR),[16],10.26% and 10.3%
